Our source for the Survival, Activity and IC50 values is ChEMBL document CHEMBL6071156 (Eur J Med Chem, 2024).

The subject of one data set is Chikungunya virus. Kind of data set: Antiviral activity against CHIKV infected in C57BL/6 mouse assessed as mouse survival at 100 mg/kg/day, ip measured after 6 days post infection. Format: functional, organism-based. Conditions: time 6.0 day.
Data set [1] is described as follows: Toxicity in C57BL/6 mouse model assessed as effect on CREAT level at 300 mg/kg/day, ip measured after 6 days post infection (reference value: 0.39 to 0.43). It counts as organism-based. Conditions: in vivo, 144 h, time 6 day.
The target of a further data set is Cytochrome P450 2C9 (Homo sapiens, UniProt P11712). Briefly: Inhibition of CYP2C9 (unknown origin). It counts as ADME.
In data set [2] the target is T1, A-type voltage-gated potassium channel KCND3 (Homo sapiens, UniProt Q9UK17).
T1 sequence (Q9UK17 whole entry): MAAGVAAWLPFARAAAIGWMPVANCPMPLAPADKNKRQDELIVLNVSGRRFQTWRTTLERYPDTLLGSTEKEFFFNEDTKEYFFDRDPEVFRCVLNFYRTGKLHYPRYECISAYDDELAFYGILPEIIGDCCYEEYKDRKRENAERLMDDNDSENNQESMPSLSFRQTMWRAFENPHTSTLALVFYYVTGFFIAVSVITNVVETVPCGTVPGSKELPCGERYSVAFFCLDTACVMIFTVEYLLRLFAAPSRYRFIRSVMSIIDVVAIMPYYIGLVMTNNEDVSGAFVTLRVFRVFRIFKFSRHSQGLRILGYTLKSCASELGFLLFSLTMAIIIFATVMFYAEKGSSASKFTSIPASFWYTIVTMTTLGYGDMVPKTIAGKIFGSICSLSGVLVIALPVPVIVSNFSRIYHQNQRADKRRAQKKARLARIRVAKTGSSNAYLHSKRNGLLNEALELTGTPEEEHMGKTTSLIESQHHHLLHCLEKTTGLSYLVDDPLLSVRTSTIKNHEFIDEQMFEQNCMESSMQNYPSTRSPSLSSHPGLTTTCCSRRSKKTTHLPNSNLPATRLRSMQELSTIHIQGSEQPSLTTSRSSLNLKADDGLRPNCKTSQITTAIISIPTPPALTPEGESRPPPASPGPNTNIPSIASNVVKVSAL
Kind of data set: Antagonist activity at potassium channels hKv4.3/hKChiP2 expressed in HEK293 cells by Electrophysiology. Format: toxicity, cell-based.

The source made the active and inactive calls. The rule behind the calls is not given here.

Cytochrome P450 2C9, sequence (P11712 whole entry): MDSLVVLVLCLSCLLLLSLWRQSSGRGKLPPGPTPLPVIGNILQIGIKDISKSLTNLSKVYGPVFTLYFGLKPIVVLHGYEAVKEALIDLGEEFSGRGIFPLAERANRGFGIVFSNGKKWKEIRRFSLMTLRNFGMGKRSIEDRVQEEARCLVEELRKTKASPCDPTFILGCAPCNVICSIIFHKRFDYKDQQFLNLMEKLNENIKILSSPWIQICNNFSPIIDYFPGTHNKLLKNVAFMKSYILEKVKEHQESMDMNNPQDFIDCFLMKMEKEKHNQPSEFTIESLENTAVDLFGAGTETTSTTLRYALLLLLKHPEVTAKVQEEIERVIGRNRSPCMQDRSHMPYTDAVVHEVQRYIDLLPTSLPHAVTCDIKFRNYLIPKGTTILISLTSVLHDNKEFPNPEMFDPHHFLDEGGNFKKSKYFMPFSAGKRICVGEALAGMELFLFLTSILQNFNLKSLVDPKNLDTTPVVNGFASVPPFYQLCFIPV

Regarding `CC1CCNc2c(C(=O)NC/C=C/S(C)(=O)=O)cccc21` (centres undefined), the Survival result in the data set on Chikungunya virus was “Active”. Further, in data set [1], the Activity was 0.35 mg/dL. Further, the IC50 (on Cytochrome P450 2C9; in data set [2]) was greater than 100 µM in each case.
